These results are taken from US20120184548A1, “CARBOXYLIC ACID ARYL AMIDES” (priority 2011, published 2012).

Experiment [1] deals with SW620 human colon cancer cells. As to the kind of experiment: SW620 Cell Viability Assay (CellTiter-Glo). The experiment is classed as cell-based. To be noted: SW-620, 96 h, 4 days incubation, read-out: Cellular EC50 SW620. How it is done: 1. Cell Plate Preparation: SW620 human colon cancer cells (known to express DYRK1B), obtained from ATCC, were seeded into 96-well plates at […] in 50 μL of media. • Harvested the required number of cells (counts & viability determined by Guava Viacount). • Centrifuge cells to pellet and removed supernant. • Resuspended in growth media (50 μL/well) & pipetted thoroughly to break up clumps. • Setup for ˜100 wells/plate, therefore, VT=5 mL/plate @ 1.2×10^5 cells/mL. 1A. Some cells (S-) were allowed to attach for 24 hrs, serum starved for 48 hrs, and then followed with treatments of test compound.
Test Compound solution was prepared in regular corresponding media supplemented with serum
2. Test Compound Preparation: Test compounds were solubilized in either DMSO or media and prepared at various stock concentrations. • All compounds were incubated at 37° C. for 30 minutes and vortexed. • (5 mM stocks of test compound were prepared for non-soluble drugs)
3. Test Compound Plate Preparation:
• The 10 mM test compound stock was diluted to a concentration of 100× the final Cmax concentration. • Then the test compound stock is diluted 50-fold in media and/or second test compound for a final Cmax concentration in the test compound plate. • The Cmax in the test compound plate (2% DMSO) is 2-fold higher than the final Cmax in the cell plate (60 uL titrations were 1:3). 4. Viability Assay: This assay was performed as follows: • Transfer 50 μL of test compound solution per well from the test compound plate onto the cell plate prepared in Step #1. • Mix the plate with treated cells by pipetting up and down three times with 200 μL multi-channel pipet. • Incubate the cells in 5% CO2 incubator @ 37° C. for 4 days. • Run the CellTiter-Glo™ Luminescent Cell Viability Assay. The results of this assay, given as EC50 values, indicate the concentration of test compound that inhibits tumor cell proliferation by 50%.
For orientation: In ATP-based viability assays light output follows the ATP content of the culture.

A further experiment concerns the target T1, Human DYRK1A (Homo sapiens, UniProt Q13627).
T1 construct: purchased Invitrogen PV3997
As to the kind of experiment: DYRK1A Kinase TR-FRET (IMAP-Tb) Assay. It counts as biochemical. Particulars: for IC50: TR-FRET, ATP 70 μM, 37° C. for 60 minutes, averages of multiple runs, read-out: Enzyme IC50 DYRK1A; for inhibition at 10 µM: 10 μM test compound, reported where IC50 was not determined, read-out: Enzyme DYRK1A % inhibition at 10 μM test compound concentration. The source says:
The kinase TR-FRET (IMAP-Tb) assay uses a fluorescence labeled substrate peptide in the kinase reaction. Upon phosphorylation by the kinase, phosphopeptide is produced, which will be detected by the binding solution provided in IMAP TR-FRET binding kit. After the completion of the kinase reaction, the reaction will be stopped by adding the binding solution containing terbium tracer. This tracer is immobilized on the surface of the IMAP beads, which also contain metal ions on the beads that bind to the phospho-groups of the products. Thus the phosphorylated product of the reaction can enter into close proximity to the tracer, producing resonance energy transfer. Due to the long lifetime of terbium (Tb) fluorescence the detection can be run in time resolved mode, which virtually eliminates fluorescence interference from assay components or compounds.
The TR-FRET signal measurement from this assay, given as an IC50 measurement, is a measure of a test compound's ability to interfere with the phosphorylation of the peptide substrate, that is it inhibits the phosphorylation of the substrate peptide by DYRK1A, and is thus a measure of the test compound's ability to inhibit the activity of DYRK1A.
1. Human DYRK1A: from Invitrogen. Part # PV3997
2. Substrate Peptide: […]
3. IMAP TR-FRET IPP Explorer Kit: from Molecular Devices. Part # R8157 4. Kinase Assay Buffer (KAB): 10 mM HEPES pH 7.0, 50 mM NaCl, 5 mM MgCl2, 1 mM DTT, 1 mM NaVO4, 200 μg/mL BSA (0.02%) 5. Assay Plate: Remp polypropylene clear 384-well microplate. […] Detection Plate: Costa black 384-well microplate. […] Transfer 1.5 μL of 20× compound solution to each well of an assay plate. 2. Add to each well 22.5 μL of KAB Buffer. 3. Add to each well 3 μL of the solution of DYRK1A and ATP. […] Add to each well 3 μL of the substrate peptide. The assay concentration is 1.0 μM 5. Incubate the assay plates at 37° C. for 60 minutes. 6. Add 18 μL of Detection Solution (1:800 diluted Progress bead stock, 1:400 diluted Tb stock, 80% Buffer A, and 20% Buffer B) into each well of detection plates. 7. Transfer 6 μL of assay solution from the assay plate to the detection plate. 8. Shake detection plates for 30 minutes. 9. Read plates in Envision with wavelength set at excitation 340 nm for Tb, emission 490 nm, and […].
(In general: In TR-FRET formats the signal depends on donor and acceptor labels being close together.)

In a further experiment the target is T2, Human DYRK1B (Homo sapiens, UniProt Q9Y463).
T2 construct: purchased Invitrogen PR8350B (former PV4649)
T2 sequence (Q9Y463 whole entry): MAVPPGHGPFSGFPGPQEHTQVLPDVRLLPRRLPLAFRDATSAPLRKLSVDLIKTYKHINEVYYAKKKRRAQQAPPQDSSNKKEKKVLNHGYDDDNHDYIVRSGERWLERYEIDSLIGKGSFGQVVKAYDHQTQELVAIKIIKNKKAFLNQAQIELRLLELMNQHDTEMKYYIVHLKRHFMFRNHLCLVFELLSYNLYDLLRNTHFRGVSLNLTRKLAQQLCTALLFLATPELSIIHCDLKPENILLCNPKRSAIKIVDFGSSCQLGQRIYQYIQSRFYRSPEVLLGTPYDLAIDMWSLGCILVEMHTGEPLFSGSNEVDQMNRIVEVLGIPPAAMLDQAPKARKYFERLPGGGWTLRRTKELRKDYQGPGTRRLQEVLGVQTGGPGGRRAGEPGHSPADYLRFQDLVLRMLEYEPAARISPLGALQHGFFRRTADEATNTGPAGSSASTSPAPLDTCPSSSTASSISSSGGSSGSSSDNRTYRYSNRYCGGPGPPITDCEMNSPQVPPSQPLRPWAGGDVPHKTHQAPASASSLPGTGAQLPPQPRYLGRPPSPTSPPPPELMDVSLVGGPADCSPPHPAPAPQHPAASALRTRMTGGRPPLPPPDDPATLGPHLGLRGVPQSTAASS
As to the kind of experiment: DYRK1B Kinase TR-FRET (IMAP-Tb) Assay. Particulars: for IC50: TR-FRET, ATP 70 μM, 37° C. for 60 minutes, averages of multiple runs, read-out: Enzyme IC50 DYRK1B; for inhibition at 10 µM: 10 μM test compound, reported where IC50 was not determined, read-out: Enzyme DYRK1B % inhibition at 10 μM test compound concentration. It counts as biochemical. The text has this:
The kinase TR-FRET (IMAP-Tb) assay uses a fluorescence labeled substrate peptide in the kinase reaction. Upon phosphorylation by the kinase, phosphopeptide is produced, which will be detected by the binding solution provided in IMAP TR-FRET binding kit. After the completion of the kinase reaction, the reaction will be stopped by adding the binding solution containing terbium tracer. This tracer is immobilized on the surface of the IMAP beads, which also contain metal ions on the beads that bind to the phospho-groups of the products. Thus the phosphorylated product of the reaction can enter into close proximity to the tracer, producing resonance energy transfer. Due to the long lifetime of terbium (Tb) fluorescence the detection can be run in time resolved mode, which virtually eliminates fluorescence interference from assay components or compounds. […] IC50 is the amount of test compound that inhibits 50% of the activity of DYRK1B in this assay. […] 1. Human DYRK1B: from Invitrogen. Part # PR8350B (former PV4649) 2. Substrate Peptide: RRRFRPASPLRGPPK 3. IMAP TR-FRET IPP Explorer Kit: from Molecular Devices. Part # R8157 4. Kinase Assay Buffer (KAB): 10 mM HEPES pH 7.0, 50 mM NaCl, 5 mM MgCl2, 1 mM DTT, 1 mM NaVO4, 200 μg/mL BSA (0.02%) 5. Assay Plate: Remp polypropylene clear 384-well microplate. Cat#23490-102 6. Detection Plate: Costa black 384-well microplate. Cat #3710 Assay Procedure: This assay was performed as follows: 1. Transfer 1.5 μL of 20× compound solution to each well of an assay plate. 2. Add to each well 22.5 μL of KAB Buffer. 3. Add to each well 3 μL of the solution of DYRK1B and ATP. […] Add to each well 3 μL of the substrate peptide. […] Incubate the assay plates at 37° C. for 60 minutes. 6. Add 18 μL of Detection Solution (1:800 diluted Progress bead stock, 1:400 diluted Tb stock, 80% Buffer A, and 20% Buffer B) into each well of detection plates. 7. Transfer 6 μL of assay solution from the assay plate to the detection plate. 8. Shake detection plates for 30 minutes. 9. Read plates in Envision with wavelength set at excitation 340 nm for Tb, emission 490 nm, and […]. 10. Calculation: TR-FRET Signal=(Reading at […])×2000000

Consider `COc1cc2cc(C(=O)Nc3cc(C(=O)N[C@H](CO)c4ccccc4)ccc3C)c(=O)[nH]c2cc1OC` [Example 57, (S)-N-(5-(2-Hydroxy-1-phenylethylcarbamoyl)-2-methylphenyl)-6,7-dimethoxy-2-oxo-1,2-dihydroquinoline-3-carboxamide], for which the EC50 (as a rule, the concentration at which the effect is half-maximal) in experiment [1] stood at 6500 nM. Further, the IC50 (in general, the concentration at which inhibition is half-maximal) worked out at 186 nM on Human DYRK1A and 883 nM on Human DYRK1B.
Taken in the same sequence, the figures for `COCCOc1cc2cc(C(=O)Nc3cc(C(=O)NC(CCN)c4ccccc4)ccc3C)c(=O)[nH]c2cc1OC` (centres unmarked) [Example 38, 7-Methoxy-6-(2-methoxy-ethoxy)-2-oxo-1,2-dihydro-quinoline-3-carboxylic acid [5-(3-amino-1-phenyl-propylcarbamoyl)-2-methyl-phenyl]-amide] were 2760 nM, 34.7 nM and 44.8 nM.
Taken in the same sequence, the figures for `COCCOc1cc2cc(C(=O)Nc3cc(C(=O)OC)ccc3C)c(=O)[nH]c2cc1OC` [Example 23, 3-{[7-Methoxy-6-(2-methoxy-ethoxy)-2-oxo-1,2-dihydro-quinoline-3-carbonyl]-amino}-4-methyl-benzoic acid methyl ester] were greater than 10000 nM, 262 nM and 440 nM.
With `COC(=O)c1ccc(C)c(NC(=O)c2cc3cc(OC)c(OC)cc3[nH]c2=O)c1` [Example 17, 3-[(6,7-Dimethoxy-2-oxo-1,2-dihydro-quinoline-3-carbonyl)-amino]-4-methyl-benzoic acid methyl ester], in experiment [1], the EC50 is greater than 10000 nM. The IC50 at Human DYRK1B worked out at 560 nM.
With `COCCOc1cc2cc(C(=O)Nc3cc(C(=O)N[C@H](CCN)c4ccccc4)ccc3C)c(=O)[nH]c2cc1OC` (single isomer, unassigned) [Example 58], the EC50 in experiment [1] worked out at 4040 nM. Also, the IC50 at Human DYRK1A amounted to 9 nM; on Human DYRK1B, 29 nM.
On to `COc1cc2cc(C(=O)Nc3cc(C(=O)NC(CN)c4ccccc4)ccc3C)c(=O)[nH]c2cc1OC` (centres unmarked) [Example 31, 6,7-Dimethoxy-2-oxo-1,2-dihydro-quinoline-3-carboxylic acid [5-(2-amino-1-phenyl-ethylcarbamoyl)-2-methyl-phenyl]-amide], for which the EC50 in experiment [1] is 1920 nM. The IC50 at Human DYRK1B was 141 nM.
Taken in the same sequence, the figures for `COc1cc2cc(C(=O)Nc3cc(C(=O)NC(CN)c4cccc(Cl)c4)ccc3C)c(=O)[nH]c2cc1OC` (centres unmarked) [Example 50, 6,7-Dimethoxy-2-oxo-1,2-dihydro-quinoline-3-carboxylic acid {5-[2-amino-1-(3-chloro-phenyl)-ethylcarbamoyl]-2-methyl-phenyl}-amide] were 1130 nM and 73.2 nM.
For the molecule `COCCOc1cc2cc(C(=O)Nc3cc(C(=O)N[C@@H](CCN)c4ccccc4)ccc3C)c(=O)[nH]c2cc1OC` (single isomer, unassigned) [Example 59], the IC50 at Human DYRK1A was 2380 nM; on Human DYRK1B, 4910 nM.
Consider `COCCOc1cc2cc(C(=O)Nc3cc(-c4nnn[nH]4)ccc3C)c(=O)[nH]c2cc1OCCOC` [Example 28, 6,7-Bis-(2-methoxy-ethoxy)-2-oxo-1,2-dihydro-quinoline-3-carboxylic acid [2-methyl-5-(1H-tetrazol-5-yl)-phenyl]-amide], for which, on Human DYRK1A, the inhibition at 10 µM is 49%. In addition, on Human DYRK1B, the IC50 turned out to be 5050 nM.
As for `COc1cc2cc(C(=O)Nc3ccncc3Cl)c(=O)[nH]c2cc1OC` [Example 36, 6,7-Dimethoxy-2-oxo-1,2-dihydro-quinoline-3-carboxylic acid (3-chloro-pyridin-4-yl)-amide], the IC50 at Human DYRK1A is 239 nM. The inhibition at 10 µM at Human DYRK1B was found to be 28%.
Consider `COc1cc2c(cc1OC)NC(=O)C(C(=O)Nc1cc(C(=O)NCc3ccccc3)ccc1C)C2` (centres unmarked) [Example 74, 6,7-Dimethoxy-2-oxo-1,2,3,4-tetrahydro-quinoline-3-carboxylic acid (5-benzylcarbamoyl-2-methyl-phenyl)-amide], for which the inhibition at 10 µM on Human DYRK1A came to 30%. At Human DYRK1B, the IC50 is greater than 10000 nM.
In the case of `COc1cc2cc(C(=O)Nc3cc(C(=O)NCc4cccc(Cl)c4)ccc3C)c(=O)[nH]c2cc1OC` [Example 40, 6,7-Dimethoxy-2-oxo-1,2-dihydro-quinoline-3-carboxylic acid [5-(3-chloro-benzylcarbamoyl)-2-methyl-phenyl]-amide], the IC50 at Human DYRK1A is 182 nM. Besides, the inhibition at 10 µM at Human DYRK1B worked out at 34%.
Taken in the same sequence, the figures for `COc1cc2cc(C(=O)Nc3cc(C(=O)N[C@H](CO)CC(C)C)ccc3C)c(=O)[nH]c2cc1OC` [Example 65, (S)-N-(5-(1-Hydroxy-4-methylpentan-2-ylcarbamoyl)-2-methylphenyl)-6,7-dimethoxy-2-oxo-1,2-dihydroquinoline-3-carboxamide] were 4310 nM and 26%.
Regarding `COc1cc2c(cc1OC)NC(=O)C(C(=O)Nc1cc(C(=O)NCc3ccccc3)ccc1Cl)C2` (centres unmarked) [Example 73, 6,7-Dimethoxy-2-oxo-1,2,3,4-tetrahydro-quinoline-3-carboxylic acid (5-benzylcarbamoyl-2-chloro-phenyl)-amide], the results for the IC50 on Human DYRK1A and at Human DYRK1B were 880 nM and 2340 nM, respectively.
